Results from paper PMC6199744, “Development of Chemical Proteomics for the Folateome and Analysis of the Kinetoplastid Folateome” (ACS Infectious Diseases, 2018).
Like-named read-outs stand apart in the source and are kept apart here.

How the values were obtained:
Type in all cases: binding
[1] = target: T1, HeLa cell extract proteins (Homo sapiens, UniProt Q13535)
T1 construct: endogenous in cells; host or cells: HeLa cell extract

[2] = target: T2, HeLa cell extract proteins (Homo sapiens, UniProt P60510)
T2 construct: endogenous in cells; host or cells: HeLa cell extract
T2 sequence (P60510 1-307): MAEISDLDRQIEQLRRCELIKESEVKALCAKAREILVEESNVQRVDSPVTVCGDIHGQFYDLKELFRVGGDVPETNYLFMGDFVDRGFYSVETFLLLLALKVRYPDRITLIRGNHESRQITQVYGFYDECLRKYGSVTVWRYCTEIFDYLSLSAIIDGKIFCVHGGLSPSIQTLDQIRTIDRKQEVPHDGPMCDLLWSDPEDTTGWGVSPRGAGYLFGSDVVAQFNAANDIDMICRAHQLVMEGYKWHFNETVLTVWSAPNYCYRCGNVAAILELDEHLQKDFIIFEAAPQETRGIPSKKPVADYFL

[3] = target: T3, HeLa cell extract proteins (Homo sapiens, UniProt Q9BWD1)
T3 construct: endogenous in cells; host or cells: HeLa cell extract
T3 sequence (Q9BWD1 whole entry): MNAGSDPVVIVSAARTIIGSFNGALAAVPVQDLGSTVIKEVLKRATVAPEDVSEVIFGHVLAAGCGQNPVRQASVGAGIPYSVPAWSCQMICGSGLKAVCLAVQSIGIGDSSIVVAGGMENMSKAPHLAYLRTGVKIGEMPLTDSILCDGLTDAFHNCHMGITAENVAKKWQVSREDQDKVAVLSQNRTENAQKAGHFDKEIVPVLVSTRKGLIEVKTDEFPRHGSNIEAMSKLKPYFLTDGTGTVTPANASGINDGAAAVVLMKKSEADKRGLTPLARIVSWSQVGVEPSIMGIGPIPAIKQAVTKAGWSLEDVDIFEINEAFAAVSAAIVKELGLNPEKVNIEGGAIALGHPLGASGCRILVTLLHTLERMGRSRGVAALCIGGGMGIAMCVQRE

[4] = target: T4, HeLa cell extract proteins (Homo sapiens, UniProt Q9BW92)
T4 construct: endogenous in cells; host or cells: HeLa cell extract
T4 sequence (Q9BW92 1-718): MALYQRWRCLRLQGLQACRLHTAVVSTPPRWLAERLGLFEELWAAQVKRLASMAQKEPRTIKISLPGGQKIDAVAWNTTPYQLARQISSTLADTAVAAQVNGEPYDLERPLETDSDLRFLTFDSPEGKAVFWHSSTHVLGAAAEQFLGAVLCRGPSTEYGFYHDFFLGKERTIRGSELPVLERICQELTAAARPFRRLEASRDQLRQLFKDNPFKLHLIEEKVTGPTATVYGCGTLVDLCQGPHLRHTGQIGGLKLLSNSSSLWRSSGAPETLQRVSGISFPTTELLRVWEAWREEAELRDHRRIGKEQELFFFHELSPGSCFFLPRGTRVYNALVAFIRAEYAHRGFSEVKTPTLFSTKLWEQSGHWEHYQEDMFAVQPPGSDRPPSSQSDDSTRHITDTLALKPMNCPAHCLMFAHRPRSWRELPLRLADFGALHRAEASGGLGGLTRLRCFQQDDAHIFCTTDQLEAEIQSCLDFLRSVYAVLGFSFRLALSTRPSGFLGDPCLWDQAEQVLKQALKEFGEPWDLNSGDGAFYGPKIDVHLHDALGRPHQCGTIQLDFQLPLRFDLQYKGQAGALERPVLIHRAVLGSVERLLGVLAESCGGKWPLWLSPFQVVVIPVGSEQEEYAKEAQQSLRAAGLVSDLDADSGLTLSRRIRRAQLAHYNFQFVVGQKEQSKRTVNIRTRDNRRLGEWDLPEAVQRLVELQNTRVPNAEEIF

[5] = target: T5, HeLa cell extract proteins (Homo sapiens, UniProt Q00653); conditions: protein NFKB2; HeLa
T5 construct: endogenous in cells; host or cells: HeLa cell extract
T5 sequence (Q00653 1-900): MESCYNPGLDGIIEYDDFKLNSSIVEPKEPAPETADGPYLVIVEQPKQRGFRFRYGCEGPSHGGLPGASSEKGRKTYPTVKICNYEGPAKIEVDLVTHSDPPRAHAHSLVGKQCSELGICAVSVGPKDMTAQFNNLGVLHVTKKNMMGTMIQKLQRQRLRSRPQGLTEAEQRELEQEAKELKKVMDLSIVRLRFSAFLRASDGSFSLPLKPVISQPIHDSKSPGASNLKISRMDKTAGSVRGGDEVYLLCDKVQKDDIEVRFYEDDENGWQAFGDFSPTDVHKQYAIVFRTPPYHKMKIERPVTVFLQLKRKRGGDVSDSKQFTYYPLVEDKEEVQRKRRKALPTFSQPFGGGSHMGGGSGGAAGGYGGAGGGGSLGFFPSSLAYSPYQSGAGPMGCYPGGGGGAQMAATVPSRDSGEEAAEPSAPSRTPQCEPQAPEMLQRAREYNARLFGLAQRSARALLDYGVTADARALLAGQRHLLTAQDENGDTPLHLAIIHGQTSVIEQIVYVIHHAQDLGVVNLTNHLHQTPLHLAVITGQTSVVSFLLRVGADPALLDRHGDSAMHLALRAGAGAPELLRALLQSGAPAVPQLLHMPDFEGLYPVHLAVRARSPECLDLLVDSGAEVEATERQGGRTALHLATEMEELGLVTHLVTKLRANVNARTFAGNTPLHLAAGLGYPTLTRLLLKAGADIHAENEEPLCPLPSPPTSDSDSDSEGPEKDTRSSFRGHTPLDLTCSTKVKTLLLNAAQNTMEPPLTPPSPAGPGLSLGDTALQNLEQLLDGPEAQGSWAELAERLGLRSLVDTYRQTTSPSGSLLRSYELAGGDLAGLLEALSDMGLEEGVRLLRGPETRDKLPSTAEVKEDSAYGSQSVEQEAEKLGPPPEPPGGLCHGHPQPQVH

[6] = target: T6, HeLa cell extract proteins (Homo sapiens, UniProt P60660); conditions: HeLa; protein MYL6
T6 construct: endogenous in cells; host or cells: HeLa cell extract
T6 sequence (P60660 1-151): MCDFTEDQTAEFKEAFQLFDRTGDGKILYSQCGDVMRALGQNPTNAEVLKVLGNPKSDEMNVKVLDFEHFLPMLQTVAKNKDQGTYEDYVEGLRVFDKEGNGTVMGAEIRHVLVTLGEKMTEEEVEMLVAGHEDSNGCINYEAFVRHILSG

[7] = target: T7, HeLa cell extract proteins (Homo sapiens, UniProt P09429); conditions: HeLa; protein HMGB1 (HIGH MOBILITY GROUP PROTEIN B1.)
T7 construct: endogenous in cells; host or cells: HeLa cell extract
T7 sequence (P09429 1-215): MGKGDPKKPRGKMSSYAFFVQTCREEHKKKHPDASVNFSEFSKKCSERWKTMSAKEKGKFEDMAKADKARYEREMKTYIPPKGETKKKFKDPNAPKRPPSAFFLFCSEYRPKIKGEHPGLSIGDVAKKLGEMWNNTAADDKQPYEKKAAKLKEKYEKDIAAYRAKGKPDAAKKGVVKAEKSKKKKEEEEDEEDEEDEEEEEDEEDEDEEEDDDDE

T1 sequence (Q13535 whole entry): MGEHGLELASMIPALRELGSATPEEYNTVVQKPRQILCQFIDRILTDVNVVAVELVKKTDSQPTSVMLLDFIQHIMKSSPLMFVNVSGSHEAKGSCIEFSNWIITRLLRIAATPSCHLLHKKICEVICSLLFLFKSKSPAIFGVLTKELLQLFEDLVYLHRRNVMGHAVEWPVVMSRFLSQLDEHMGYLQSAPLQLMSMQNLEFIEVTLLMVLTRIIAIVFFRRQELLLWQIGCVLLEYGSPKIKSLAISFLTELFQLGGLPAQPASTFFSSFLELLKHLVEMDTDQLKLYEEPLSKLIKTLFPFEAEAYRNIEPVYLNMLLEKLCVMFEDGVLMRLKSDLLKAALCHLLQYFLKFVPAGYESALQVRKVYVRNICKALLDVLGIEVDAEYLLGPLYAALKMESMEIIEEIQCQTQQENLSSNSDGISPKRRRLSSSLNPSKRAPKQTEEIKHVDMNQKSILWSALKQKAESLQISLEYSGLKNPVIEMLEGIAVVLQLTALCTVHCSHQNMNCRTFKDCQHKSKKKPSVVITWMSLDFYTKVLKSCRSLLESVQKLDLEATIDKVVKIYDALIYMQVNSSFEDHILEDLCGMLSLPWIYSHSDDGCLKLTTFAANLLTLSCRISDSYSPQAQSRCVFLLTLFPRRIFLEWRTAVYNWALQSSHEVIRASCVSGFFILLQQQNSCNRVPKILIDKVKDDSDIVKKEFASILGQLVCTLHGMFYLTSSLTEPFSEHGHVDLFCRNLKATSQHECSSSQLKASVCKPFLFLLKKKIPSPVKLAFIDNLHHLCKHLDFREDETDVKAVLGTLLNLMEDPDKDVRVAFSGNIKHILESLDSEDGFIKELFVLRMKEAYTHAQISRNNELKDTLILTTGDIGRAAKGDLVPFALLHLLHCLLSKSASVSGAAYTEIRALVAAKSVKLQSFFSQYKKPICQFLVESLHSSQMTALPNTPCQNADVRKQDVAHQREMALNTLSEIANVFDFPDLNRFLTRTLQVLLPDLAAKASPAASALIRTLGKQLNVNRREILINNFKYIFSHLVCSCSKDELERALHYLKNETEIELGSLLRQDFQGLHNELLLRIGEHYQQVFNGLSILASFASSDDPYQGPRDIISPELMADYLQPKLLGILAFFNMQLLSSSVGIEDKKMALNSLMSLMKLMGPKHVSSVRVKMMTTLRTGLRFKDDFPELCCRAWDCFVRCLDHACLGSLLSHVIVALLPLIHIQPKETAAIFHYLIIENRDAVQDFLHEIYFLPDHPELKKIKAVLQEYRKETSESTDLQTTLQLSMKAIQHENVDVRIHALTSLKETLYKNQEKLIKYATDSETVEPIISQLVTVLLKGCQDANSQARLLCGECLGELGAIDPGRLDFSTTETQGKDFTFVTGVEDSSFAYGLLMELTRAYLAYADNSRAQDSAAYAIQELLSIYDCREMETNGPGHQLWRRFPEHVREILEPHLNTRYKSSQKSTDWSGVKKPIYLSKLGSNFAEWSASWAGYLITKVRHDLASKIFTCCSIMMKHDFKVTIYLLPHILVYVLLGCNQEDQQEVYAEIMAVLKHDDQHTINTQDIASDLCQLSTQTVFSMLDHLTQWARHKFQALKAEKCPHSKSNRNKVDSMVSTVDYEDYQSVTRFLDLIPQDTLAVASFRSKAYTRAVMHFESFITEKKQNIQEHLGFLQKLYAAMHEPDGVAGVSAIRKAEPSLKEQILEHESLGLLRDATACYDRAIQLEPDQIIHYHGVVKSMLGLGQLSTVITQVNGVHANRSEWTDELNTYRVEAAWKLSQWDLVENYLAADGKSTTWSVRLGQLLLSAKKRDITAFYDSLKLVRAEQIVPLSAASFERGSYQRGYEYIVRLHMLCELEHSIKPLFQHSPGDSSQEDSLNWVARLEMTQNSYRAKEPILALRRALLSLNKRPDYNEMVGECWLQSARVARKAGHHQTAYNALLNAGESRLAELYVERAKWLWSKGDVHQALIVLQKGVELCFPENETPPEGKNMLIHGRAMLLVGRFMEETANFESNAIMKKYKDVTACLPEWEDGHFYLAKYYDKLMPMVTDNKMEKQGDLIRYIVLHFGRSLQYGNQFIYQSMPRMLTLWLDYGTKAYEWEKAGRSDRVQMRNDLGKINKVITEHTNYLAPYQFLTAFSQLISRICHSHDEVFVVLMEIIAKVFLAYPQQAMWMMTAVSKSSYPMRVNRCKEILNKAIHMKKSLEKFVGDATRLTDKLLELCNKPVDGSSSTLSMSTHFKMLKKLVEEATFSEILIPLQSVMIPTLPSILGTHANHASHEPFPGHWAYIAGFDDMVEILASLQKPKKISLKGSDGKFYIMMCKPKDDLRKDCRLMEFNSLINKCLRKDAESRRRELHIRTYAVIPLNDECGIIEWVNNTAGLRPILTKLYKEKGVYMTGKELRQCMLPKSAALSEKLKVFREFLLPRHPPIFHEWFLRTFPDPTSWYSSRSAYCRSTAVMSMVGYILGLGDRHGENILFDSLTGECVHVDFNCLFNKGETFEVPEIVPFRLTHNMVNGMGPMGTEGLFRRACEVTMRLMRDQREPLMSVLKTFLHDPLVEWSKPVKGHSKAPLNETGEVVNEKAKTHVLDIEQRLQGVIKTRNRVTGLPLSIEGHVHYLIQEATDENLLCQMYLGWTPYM

SMILES	fold changes relative to vehicle control ([1]; protein ATR, HeLa)	fold changes relative to vehicle control ([2]; protein PPP4C, HeLa)	fold changes relative to vehicle control ([3]; HeLa, protein ACAT2)	fold changes relative to vehicle control ([4]; HeLa, protein TARS2)	fold changes relative to vehicle control [5]	fold changes relative to vehicle control [6]	fold changes relative to vehicle control [7] [fold]	further results
Nc1nc2c(c(=O)[nH]1)N(C=O)C(CNc1ccc(C(=O)N[C@@H](CCC(=O)O)C(=O)O)cc1)CN2 (stereo partly shown) [LEU, leucovorin]	0.66	0.82	1.06	0.91	–	–	–	–
Nc1nc2[nH]cc(CCc3ccc(C(=O)N[C@@H](CCC(=O)O)C(=O)O)cc3)c2c(=O)[nH]1 [PTX, pemetrexed]	–	–	–	–	–	–	–	fold changes relative to vehicle control [1]: 0.79; fold changes relative to vehicle control [2]: 0.95; fold changes relative to vehicle control [3]: 0.82; fold changes relative to vehicle control [4]: 0.87
CCCCCCOc1ccc(Cc2cnc(N)nc2N)cc1 [compound 1]	–	–	–	–	0.9	1.14	1.53	–
CCCCCCOc1cccc(Cc2cnc(N)nc2N)c1 [compound 2]	–	–	–	–	1.24	1.3	3.16	–
Nc1nc2cccc(-c3ccccc3)c2n1Cc1ccc(Cl)c(Cl)c1 [compound 3]	–	–	–	–	0.9	1.11	0.85	–
NCCOCCOCC(=O)Nc1nc2ncc(CNc3ccc(C(=O)NC(CCC(=O)O)C(=O)O)cc3)nc2c(=O)[nH]1 (stereo not shown) [compound 6]	0.69	0.95	1.17	1.13	–	–	–	–
NCCCNc1ccc(C(=O)NC(CCC(=O)O)C(=O)O)cc1 (stereo not shown) [compound 7]	0.54	1	1.12	1	–	–	–	–
